Like-named read-outs stand apart in the source and are kept apart here. Non-standard residues stand in square brackets, D forms with d. Residues, ends and D or L forms follow the SMILES beside them. dPhe(4-Cl) = N[C@H](Cc1ccc(Cl)cc1)C(=O)O; d2Nal = N[C@H](Cc1ccc2ccccc2c1)C(=O)O; dCit = NC(=O)NCCC[C@@H](N)C(=O)O; d3Pal = N[C@H](Cc1cccnc1)C(=O)O

Series [1] relates to patient with systemic lupus erythematosus. Kind of series: Previous therapies for pain in extremities of the lupus patient. The format is in vivo, human. The note with it: previous therapies before degarelix. The protocol:
Due to their painful condition, they have been followed up by a pain clinic. They were offered a tricyclic antidepressant, amitriptyline 25 mg in March 2014 for their painful condition.

In series [2] the test system is patient with ankylosing spondylitis. Kind of series: Treatment of ankylosing spondylitis patient (BASDAI, laboratory variables). In kind it is in vivo, human. As to conditions: AS patient. The text has this: Diagnosed with ankylosing spondylitis in 1984, HLAB27 positive, with repeated iridocyclitis. Used non-steroidal anti-inflammatory drugs previously. They were offered the TNF-alpha inhibitor Golilimumab in 2010. Their disease activity score was 8.9 in October 2010 (see below for explanation of disease activity score) on initiating Golilimumab; by the June 2012 this score had reduced to 6.6, but by May 2013 the effect had worn off and their score was 7.6. May 2013, they initiated Enbrel treatment, but their disease activity increased from 7.6 to 8.3. Due to their poor response to TNF-alpha therapy, they were offered the GnRH antagonist Degarelix in September 2014.
Disease activity in ankylosing spondylitis is measured by the BASDAI (Bath Ankylosing Spondylitis Disease Activity Index1), has been extensively validated in clinical trials, 2, 3 and is one of the most commonly used outcome measures in clinical trials. This is a componsite index that evaluates fatigue, axial and peripheral pain, stiffness and enthesopathy. Their BASDAI was at 8.7 at baseline. In September 2014 they received their first dose of Degarelix 240 mg sc. By 2 weeks, their BASDAI had reduced to 6.8, and by 6 weeks it had reduced to 5.8. This is the lowest BASDAI score they have ever had since we first started using this method of assessment 4 years ago in 2010. Their morning stiffness lasted 4 hours at baseline, by 6 weeks their morning stiffness had reduced to 2 hours. They had their second dose of Degarelix 80 mg s.c in October 2014. Lumbar flexion and maximum arm abduction were increased after 6 weeks of treatment.
Response to therapy in clinical practice is defined as improvement of 2 units or 50% on a 0-10 scale of the BASDAI, and expert opinion that the treatment should be continued. Their reduction by 6 weeks was 2.9 units, and 7.1 units with an 82% BASDAI score improvement by 9 weeks, and we shall continue treatment. A BASDAI 50% improvement is defined as a major clinical response. […] For comparison, approximately 50-60% of patients achieve a BASDAI 50 by 12 weeks on TNF inhibitors (4). Their ESR has decreased from 46 mm to 23 mm, which is their lowest ESR reading in 19 years. […] By 9 weeks of GnRH antagonist therapy, their kidney function has normalized, and fasting glucose reduced from 7.4 to 6.5 mmol/L. By 3 months, the effect on their ankylosing spondylitis remained, creatinine was at 98 umol/L, with a glomerular filtration rate of 66 ml/min/1.73 m2 in December 2014.

Series [3] concerns patient with osteoarthritis of both knees. Kind of series: Intra-articular GnRH inhibiting treatment in osteoarthritis. In kind it is in vivo, human. As to conditions: intra-articular 1 mg into both knees, 2 week post injection. The text has this:
• person with osteoarthritis of both knees diagnosed by x-ray 10 years ago • Has had synovitis secondary to osteoarthritis in both knees for the last month, confirmed by synovitis on ultrasound. Experimental Treatment • In order to treat the secondary inflammation as a result of their knee osteoarthritis, they are offered intra-articular GnRH antagonist treatment, for example Cetrorelix lmg injected into both knees. Subcutaneous Cetrorelix for injection can be used. Assessment of Response • Before and 2 week post injection ultrasound images are taken to show a decrease in synovitis in the knee joint.

The subject of series [4] is patients with active longstanding RA. Kind of series: Double-blinded randomised study of cetrorelix vs placebo in RA (NCT00667758), serum P1NP. In kind it is in vivo, human. The protocol:
In this double-blinded, single-site study in Norway (ClinicalTrials.gov NCT00667758), 99 patients with active longstanding RA, were randomised to predefined intention-to-treat populations using computer-generated allocation (1:1) in dynamic blocks stratified for sex. Patients were assigned to subcutaneous cetrorelix (n=48) (5 mg days 1-2, 3 mg days 3-5) or placebo (n=51). P1NP was measured on day 10. We investigated serum P1NP between groups, a predefined secondary endpoint. Detailed efficacy and safety data are presented separately.

In series [5] the test system is patient with seropositive rheumatoid arthritis. The series can be described thus: Treatment of rheumatoid arthritis using Cetrorelix. In kind it is in vivo, human. As to conditions: RA patient. The protocol: • person with seropositive rheumatoid arthritis with disease duration of 10 years. • Fulfilled ACR 2010 classification criteria for rheumatoid arthritis. Experimental Treatment • Had tried all therapies available previously without effect. • Offered experimental GnRH antagonist therapy, Cetrorelix in 0.5 mg sc daily in October 2014, then 0.75 mg sc daily in December 2014.

A further series has as its system mice. Kind of series: Animal study of preventing age related inflammation. In kind it is in vivo. The note with it: 0.5 mg/kg daily with or without gonadal hormone replacement, vs placebo. As to the method: An animal study is conducted with 40 fertile female mice aged approximately 6-20 months in a control group (group 1) receiving placebo, 40 age and sex matched mice receiving a drug that reduces the activity of GnRH (group 2), such as Cetrorelix 0.5 mg/kg daily, and 40 age and sex matched mice receiving the same GnRH inhibitor as group 2, but with the additional replacement of gonadal hormone (oestrogen) to age adjusted pre-chosen levels. All mice are followed prospectively, and evaluated for systemic inflammation markers, atherosclerosis, osteoporosis, LDL, and age at death. The same three interventions and assessments are carried out in three groups of male mice with 40 male mice in each group, aged approximately 6-20 months, replacing the gonadal hormone testosterone to pre-chosen levels in group 3. Mice treated with a drug that reduces the activity of GnRH, such as Cetrorelix 0.5 mg/kg daily with or without the replacement of gonadal hormone (preferably with) reach a higher age at death compared with mice in the placebo groups. These mice also show less atherosclerosis, osteoporosis and systemic inflammation than mice in the placebo groups.

The test system of series [6] is patients with rheumatoid arthritis. The note with it: AGRA study, 5 days, Kass et al. 2014; cited from earlier work.
Another series has as its system patient with colitis. As to conditions: week 2 after an infliximab infusion, literature; cited from earlier work.
The test system of series [7] is patient with seropositive rheumatoid arthritis. The series can be described thus: Example treatment of RA using oral GnRH antagonists (DAS). The format is in vivo, human. As to the method:
• person with seropositive rheumatoid arthritis with disease duration of 10 years. • Fulfills ACR 2010 classification criteria for rheumatoid arthritis. Experimental Treatment • Is offered experimental GnRH antagonist therapy, Elagolix 550 mg daily for 12 weeks.
• person with seropositive rheumatoid arthritis with disease duration of 10 years. • Fulfills ACR 2010 classification criteria for rheumatoid arthritis. Experimental Treatment • Is offered experimental GnRH antagonist therapy, Relugolix 250 mg daily for 12 weeks.
• person with seropositive rheumatoid arthritis with disease duration of 20 years. • Fulfills ACR 2010 classification criteria for rheumatoid arthritis. Experimental Treatment • Treated with a spiroindoline derivative as a GnRH antagonist orally 200 mg daily for 12 weeks.

Series [8] concerns patient with spondyloarthritis. The series can be described thus: Example treatment of spondyloarthritis using Relugolix. The format is in vivo, human. The protocol: • person with spondyloarthritis with disease duration of 5 years. Experimental Treatment • Is offered experimental GnRH antagonist therapy, Relugolix 400 mg daily for 12 weeks. Assessment of Response at 4 Months • Disease activity in ankylosing spondylitis/spondyloarthritis is measured by the BASDAI score. Their BASDAI is 5 at baseline.

In series [9] the test system is patient with lithium induced psoriasis. The note with it: 15 patients with psoriasis taking lithium, pretreatment, literature; cited from earlier work.
For series [10], the system named is patient with systemic sclerosis. The note with it: Cyclophosphamide trial, literature, cited from earlier work.

For the molecule `Cn1cnc([N+](=O)[O-])c1Sc1ncnc2nc[nH]c12` [azathioprine], in series [1], the “effect on pain in extremities” value is recorded as “not effective”.
As for `CC(C)C[C@H](CN)CC(=O)O` [pregabalin], the “effect on pain in extremities” value in [1] is “no effect”.
For Golilimumab: TNF-alpha inhibitor, the “disease activity score (BASDAI)” value in series [2] (June 2012 on Golilimumab) is given as 6.6; in series [2] (May 2013 on Golilimumab, effect worn off), 7.6; in [2] (October 2010, on initiating Golilimumab), 8.9.
Take `NCC1(CC(=O)O)CCCCC1` [gabapentin]: the “effect on pain in extremities” value in series [1] is reported as “no effect”.
Still for that read-out and setting: the same measure for `CN(Cc1cnc2nc(N)nc(N)c2n1)c1ccc(C(=O)N[C@@H](CCC(=O)O)C(=O)O)cc1` [methotrexate]: “not effective”.
As to `CC(=O)N[C@H](Cc1ccc2ccccc2c1)C(=O)N[C@H](Cc1ccc(Cl)cc1)C(=O)N[C@H](Cc1cccnc1)C(=O)N[C@@H](CO)C(=O)N[C@@H](Cc1ccc(O)cc1)C(=O)N[C@H](CCCNC(N)=O)C(=O)N[C@@H](CC(C)C)C(=O)N[C@@H](CCCNC(=N)N)C(=O)N1CCC[C@H]1C(=O)N[C@H](C)C(N)=O` [Cetrorelix] (Ac-[d2Nal][dPhe(4-Cl)][d3Pal]SY[dCit]LRP[dA]-NH2), the “synovitis in the knee joint on ultrasound” value in series [3] was “decrease”. Moreover, the “P1NP mean difference vs placebo” value in series [4] (by day 10, 95% CI −6.62, −0.29, p=0.033) was -3.45 µg/L. Also, the P1NP change in series [4] (cetrorelix group (n=48), 5 mg days 1-2, 3 mg days 3-5, by day 10) was -4.21 µg/L. Moreover, the “disease activity markers and TNF-α (log pg/mL)” value in series [4] (cetrorelix vs placebo) is on record as “significant reductions”. In addition, in [5] (at 12 weeks), the CRP is reported as 18 mg/L, the ESR came to 28 mm and the rheumatoid factor level is given as 111 kIU/L. Besides, in [5] (at 12 weeks, 0.5 then 0.75 mg sc daily), the “Disease activity score (DAS)” value came to 5.5. In series [5] (before Cetrorelix), the CRP stood at 41 mg/L, the “Disease activity score (DAS)” value was 6.1, the ESR was determined as 35 mm and the rheumatoid factor level was determined as 137 kIU/L. In the series with mice, the age at death result is given as “higher”; the “atherosclerosis, osteoporosis and systemic inflammation” value is on record as “less”. In addition, in [6], the TNF-α result is listed as “possible reduction” and the “primary end-point with regard to clinical response” value was “did not meet the primary end-point”.
For the molecule Enbrel, the “disease activity (BASDAI)” value in [2] (May 2013, on initiating Enbrel) stood at 7.6; in [2] (after Enbrel treatment), 8.3.
Take “infliximab: anti-tumour necrosis factor-α”: in the series with patient with colitis, the Fecal calprotectin concentration entry is listed as “decreases significantly”.
Regarding `CN(C)CCC=C1c2ccccc2CCc2ccccc21` [amitriptyline], the “effect on pain in extremities” value in [1] is listed as “no effect”.
Take `CONC(=O)Nc1ccc(-c2sc3c(c2CN(C)C)c(=O)n(-c2ccc(OC)nn2)c(=O)n3Cc2c(F)cccc2F)cc1` [Relugolix]: the Eular response entry in series [7] (Relugolix 250 mg daily for 12 weeks, assessment at 4 months) was “Good Eular Response”. Also, the “Disease activity score (DAS)” value in [7] (Relugolix 250 mg daily for 12 weeks, assessment at 4 months (remission)) was found to be 2.5; in series [7] (before Relugolix), 3.5. Further, the BASDAI in series [8] (Relugolix 400 mg daily, at 12 weeks (remission)) is 1.2; in [8] (baseline), 5.
Turning to `COc1c(C)c2c(c(O)c1C/C=C(\C)CCC(=O)OCCN1CCOCC1)C(=O)OC2` [mycophenolate mofetil], the “effect on pain in extremities” value in series [1] is listed as “not effective”.
On to `O[C@H]1[C@H](O)[C@@H](O)[C@H](O)[C@@H](O)[C@H]1O` [inositol], for which the “median PASI score” value in [9] is 4.9.
Take `O=P1(N(CCCl)CCCl)NCCCO1` (stereo not drawn) [Cyclophosphamide]: the “digital ulcers, average” value is recorded as 9 ulcers in series [10] (over a period of 12 months) and 7 ulcers in series [10] (start).

The values above are taken from patent US10821152B2, “Methods, agents and compositions for treatment of inflammatory conditions” (Betanien Hospital, priority 2014, dated 2020).
